# Laboratory results from patent publication US20230203003A1, “Notch Inhibitors and Uses Thereof” (StemSynergy Therapeutics, Inc., priority 2020, published 2023).
# Counter-ions that a name gives are not always drawn.
# Target: T1, hNotch1ICD (Homo sapiens, UniProt P46531)
# T1 construct: pLV[Tet]-Puro-TRE3G>Notch1-ICD; expressed in transfected cells; host or cells: 293A cells
# Assay: Notch1 Reporter Assay (Dox-inducible Notch1-ICD, CSL-responsive luciferase in 293A cells)
# Type: cell-based
# Conditions: 293A cells, 24 h, luciferase normalized to cell viability; read-out: Notch1 Reporter Assay IC50
# Experimental: 293A cells expressing 1) pCMV-Tet-On 3G, 2) pLV[Tet]-Puro-TRE3G>Notch1-ICD, 3) pLV[Tet]-Puro-TRE3G>Notch2-ICD, 4) pLV[Tet]-Puro-TRE3G>Notch3-ICD, and 5) pCSL-RElement-Luc were used. When Doxycycline is added, the Tet-ON gene activates expression of hNotch1ICD, which together with endogenous NTC components binds to CSL responsive elements (pCSL-RElement-Luc) and expresses luciferase. 1 ×× 10^4 cells are plated in 100 µL (96-well format). 24 h later, compounds (10 mM stock in DMSO) are diluted in DMSO to 200X, then added (5 ul into 1 mL) to cell culture media containing 50 ng/mL Dox. This is then added 1:1 to cells. Final DMSO = 0.25%, Dox = 25 ng/mL. After 24 h, media is discarded, and cells are lysed in passive lysis buffer (Promega). Cells are rocked at room temperature for 15 min and then lysate is divided for luciferase assay (Luciferase Assay System, Promega) and cell viability (CellTiter Glo 2.0, Promega). Raw luciferase is normalized to cell viability, and then scaled to DMSO wells. Results are analyzed and IC50′s are determined in GraphPad by nonlinear regression curve fitting (4 parameter) of dose response curves.
# T1 sequence (P46531 1754-2555 limits assumed): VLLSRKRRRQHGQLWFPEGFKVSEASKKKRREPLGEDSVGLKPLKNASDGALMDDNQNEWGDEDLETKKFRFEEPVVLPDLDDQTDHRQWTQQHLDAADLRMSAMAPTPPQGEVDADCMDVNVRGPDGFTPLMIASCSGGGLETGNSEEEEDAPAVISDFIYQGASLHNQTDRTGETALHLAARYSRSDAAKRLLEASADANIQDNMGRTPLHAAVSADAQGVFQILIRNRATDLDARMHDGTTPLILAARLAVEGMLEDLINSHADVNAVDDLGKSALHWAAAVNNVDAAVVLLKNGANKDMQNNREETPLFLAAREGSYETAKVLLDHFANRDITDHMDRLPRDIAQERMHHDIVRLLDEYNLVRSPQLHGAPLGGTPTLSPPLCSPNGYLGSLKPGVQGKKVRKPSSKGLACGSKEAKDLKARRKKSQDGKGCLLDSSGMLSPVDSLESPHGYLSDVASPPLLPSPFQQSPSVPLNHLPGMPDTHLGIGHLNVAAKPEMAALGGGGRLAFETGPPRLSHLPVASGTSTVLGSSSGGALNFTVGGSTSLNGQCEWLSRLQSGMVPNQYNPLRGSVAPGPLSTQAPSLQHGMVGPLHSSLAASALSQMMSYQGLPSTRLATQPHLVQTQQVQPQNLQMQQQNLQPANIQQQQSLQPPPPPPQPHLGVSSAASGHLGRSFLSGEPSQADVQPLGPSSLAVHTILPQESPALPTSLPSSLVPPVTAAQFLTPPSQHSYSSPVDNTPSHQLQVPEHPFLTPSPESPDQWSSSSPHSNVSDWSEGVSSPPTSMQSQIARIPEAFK
row,Structure (SMILES),IC50 [µM]
1,CC(C)Cn1c(=O)c(C(=O)Nc2ccc(N3CCN(C)CC3)cc2)c(O)c2ccccc21 [569(01)],8.4
2,CC(C)Cn1c(=O)c(C(=O)Nc2ccc(F)cc2N2CCN(C)CC2)c(O)c2ccccc21 [570(01)],6.5
3,CC(C)Cn1c(=O)c(C(=O)Nc2cccc(F)c2)c(O)c2cc(N3CCN(C)CC3)ccc21 [577(01)],9.7
4,Cc1cccnc1NC(=O)c1c(O)c2cc(N3CCN(C)CC3)ccc2n(CC(C)C)c1=O [579(01)],18.4
5,Cc1cccnc1NC(=O)c1c(O)c2ccc(N3CCN(C)CC3)cc2n(CC(C)C)c1=O [580(01)],13.3
6,Cc1cccnc1NC(=O)c1c(O)c2ccc(N3CCN(C)CC3)cc2n(CC(C)C)c1=O [580(02)],14
7,CC(C)Cn1c(=O)c(C(=O)Nc2cccc(F)c2N2CCN(C)CC2)c(O)c2ccccc21 [581(01)],7.8
8,CC(C)Cn1c(=O)c(C(=O)Nc2cccc(F)c2N2CCN(C)CC2)c(O)c2ccccc21 [581(02)],7.7
9,CC(C)Cn1c(=O)c(C(=O)Nc2cc(F)cc(N3CCN(C)CC3)c2)c(O)c2ccccc21 [583(01)],8.1
10,CC(C)Cn1c(=O)c(C(=O)Nc2cc(F)cc(N3CCN(C)CC3)c2)c(O)c2ccccc21 [583(02)],6.3
11,CC(C)Cn1c(=O)c(C(=O)Nc2ccc(F)c(N3CCN(C)CC3)c2)c(O)c2ccccc21 [584(01)],4.5
12,CC(C)Cn1c(=O)c(C(=O)Nc2cccc(F)c2)c(O)c2c(N3CCN(C)CC3)cccc21 [588(01)],10.3
13,CC(C)Cn1c(=O)c(C(=O)Nc2cccc(F)c2)c(O)c2c(N3CCN(C)CC3)cccc21 [588(02)],9.8
14,O=C(Nc1ccccc1)c1c(O)c2c(n(Cc3ccco3)c1=O)CCCC2 [SSTN-379],27.5
15,CCCn1c2c(c(O)c(C(=O)Nc3ccccn3)c1=O)CCCC2 [SSTN-401],21.6
16,O=C(Nc1ncccc1O)c1c(O)c2c([nH]c1=O)CCCC2 [SSTN-402],12.1
17,Cc1ccnc(NC(=O)c2c(O)c3ccccc3n(Cc3ccccc3)c2=O)c1 [SSTN-410],21.9
18,O=C(Nc1ccc(F)cc1)c1c(O)c2cccnc2n(-c2ccccc2)c1=O [SSTN-443],9
19,"CC(C)Cn1c(=O)c(C(=O)Nc2cccc(F)c2)c(O)c2ccc(Br)cc21 [SSTN-567, 7-bromo-N-(3-fluorophenyl)-4-hydroxy-1-isobutyl-2-oxo-1,2-dihydroquinoline-3-carboxamide]",33.2

# Same assay, conditions: value printed in the synthesis heading of the compound; read-out: Notch1 Reporter Assay IC50
row,Structure (SMILES),IC50 [µM]
1,"CC(C)Cn1c(=O)c(C(=O)Nc2ccccc2N2CCN(C)CC2)c(O)c2ccccc21 [SSTN-568, 4-hydroxy-1-isobutyl-N-(2-(4-methylpiperazin-1-yl)phenyl)-2-oxo-1,2-dihydroquinoline-3-carboxamide]",21.5
2,"CC(C)Cn1c(=O)c(C(=O)Nc2ccccc2N2CCN(C)CC2)c(O)c2ccccc21 [SSTN-568_HCl salt, 4-hydroxy-1-isobutyl-N-(2-(4-methylpiperazin-1-yl)phenyl)-2-oxo-1,2-dihydroquinoline-3-carboxamide hydrochloride salt]",6.83
3,"CC(C)Cn1c(=O)c(C(=O)Nc2ccc(N3CCN(C)CC3)cc2)c(O)c2ccccc21 [SSTN-569, 4-hydroxy-1-isobutyl-N-(4-(4-methylpiperazin-1-yl)phenyl)-2-oxo-1,2-dihydroquinoline-3-carboxamide]",8.42
4,"CC(C)Cn1c(=O)c(C(=O)Nc2ccc(N3CCN(C)CC3)cc2)c(O)c2ccccc21 [SSTN-569_HCl salt, 4-hydroxy-1-isobutyl-N-(4-(4-methylpiperazin-1-yl)phenyl)-2-oxo-1,2-dihydroquinoline-3-carboxamide hydrochloride salt]",4.93
5,"CC(C)Cn1c(=O)c(C(=O)Nc2ccc(F)cc2N2CCN(C)CC2)c(O)c2ccccc21 [SSTN-570, N-(4-fluoro-2-(4-methylpiperazin-1-yl)phenyl)-4-hydroxy-1-isobutyl-2-oxo-1,2-dihydroquinoline-3-carboxamide]",6.5
6,"CC(C)Cn1c(=O)c(C(=O)Nc2ccc(F)cc2N2CCN(C)CC2)c(O)c2ccccc21 [SSTN-570_HCl salt, N-(4-fluoro-2-(4-methylpiperazin-1-yl)phenyl)-4-hydroxy-1-isobutyl-2-oxo-1,2-dihydroquinoline-3-carboxamide hydrochloride salt]",5.6
7,"CC(C)Cn1c(=O)c(C(=O)Nc2cc(F)ccc2N2CCN(C)CC2)c(O)c2ccccc21 [SSTN-571_HCl salt, N-(5-fluoro-2-(4-methylpiperazin-1-yl)phenyl)-4-hydroxy-1-isobutyl-2-oxo-1,2-dihydroquinoline-3-carboxamide hydrochloride salt]",7.87
8,"CC(C)Cn1c(=O)c(C(=O)Nc2ccc(N3CCN(C)CC3)c(F)c2)c(O)c2ccccc21 [SSTN-572, N-(3-fluoro-4-(4-methylpiperazin-1-yl)phenyl)-4-hydroxy-1-isobutyl-2-oxo-1,2-dihydroquinoline-3-carboxamide]",17.7
9,"CC(C)Cn1c(=O)c(C(=O)Nc2ccc(N3CCN(C)CC3)c(F)c2)c(O)c2ccccc21 [SSTN-572_HCl salt, N-(3-fluoro-4-(4-methylpiperazin-1-yl)phenyl)-4-hydroxy-1-isobutyl-2-oxo-1,2-dihydroquinoline-3-carboxamide hydrochloride salt]",3.4
10,"CC(C)Cn1c(=O)c(C(=O)Nc2cccc(F)c2)c(O)c2cc(N3CCN(C)CC3)ccc21 [SSTN-577, N-(3-fluorophenyl)-4-hydroxy-1-isobutyl-6-(4-methylpiperazin-1-yl)-2-oxo-1,2-dihydroquinoline-3-carboxamide]",9.69
11,"CC(C)Cn1c(=O)c(C(=O)Nc2cccc(F)c2)c(O)c2cc(N3CCN(C)CC3)ccc21 [SSTN-577_HCl salt, N-(3-fluorophenyl)-4-hydroxy-1-isobutyl-6-(4-methylpiperazin-1-yl)-2-oxo-1,2-dihydroquinoline-3-carboxamide hydrochloride salt]",6.44
12,"Cc1cccnc1NC(=O)c1c(O)c2cc(N3CCN(C)CC3)ccc2n(CC(C)C)c1=O [SSTN-579, 4-hydroxy-1-isobutyl-6-(4-methylpiperazin-1-yl)-N-(3-methylpyridin-2-yl)-2-oxo-1,2-dihydroquinoline-3-carboxamide]",18.4
13,"Cc1cccnc1NC(=O)c1c(O)c2ccc(N3CCN(C)CC3)cc2n(CC(C)C)c1=O [SSTN-580_HCl salt, 4-hydroxy-1-isobutyl-7-(4-methylpiperazin-1-yl)-N-(3-methylpyridin-2-yl)-2-oxo-1,2-dihydroquinoline-3-carboxamide hydrochloride salt]",14
14,"Cc1cccnc1NC(=O)c1c(O)c2ccc(N3CCN(C)CC3)cc2n(CC(C)C)c1=O [SSTN-580_TFA salt, 4-hydroxy-1-isobutyl-7-(4-methylpiperazin-1-yl)-N-(3-methylpyridin-2-yl)-2-oxo-1,2-dihydroquinoline-3-carboxamide TFA salt]",13.3
15,"CC(C)Cn1c(=O)c(C(=O)Nc2cccc(F)c2N2CCN(C)CC2)c(O)c2ccccc21 [SSTN-581_Formate salt, N-(3-fluoro-2-(4-methylpiperazin-1-yl)phenyl)-4-hydroxy-1-isobutyl-2-oxo-1,2-dihydroquinoline-3-carboxamide formate salt]",7.76
